Data as given in patent publication US20260241012A1, “1,8-NAPHTHYRIDIN-2-ONE HETEROBIFUNCTIONAL BCL6 DEGRADERS” (Treeline Biosciences, Inc., priority 2022, published 2026).

Molecular target: T1, N-terminal HiBiT tagged BCL6 (Homo sapiens, UniProt P41182)
T1 construct: expressed in transfected cells; host or cells: HT1080 (ATCC CCL-121), stably transduced with lentivirus pLV-UBC-N-HiBiT-BCL6-PGK-puro
Assay: HiBiT based degradation assay
Format: cell-based
Conditions: HT1080 cells expressing N-terminal HiBiT tagged BCL6, 5 hours of incubation; for Ymin (5 hr): BCL6 degradation normalized with DMSO control; for DC50: four-parameter logistic model, read-out: EC50 (5 hr)
In short: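 Degradation measured by luminescence from the Nano-Glo HiBiT lytic reagent (15 min, room temperature), normalized to DMSO controls and fitted to a four-parameter curve.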

| SMILES | Ymin (5 hr) | DC50 |
| --- | --- | --- |
| CNC(=O)COc1cc2cc(Nc3nc(N4CC5(CC[C@H](Nc6cccc7c(C8CCC(=O)NC8=O)nn(C)c67)[C@H](C)C5)C4)ncc3Cl)cnc2n(C)c1=O (relative stereo) [Compound 159a, 2-((6-((5-chloro-2-((6R,7S)-7-((3-(2,6-dioxopiperidin-3-yl)-1-methyl-1H-indazol-7-yl)amino)-6-methyl-2-azaspiro[3.5]nonan-2-yl)pyrimidin-4-yl)amino)-1-methyl-2-oxo-1,2-dihydro-1,8-naphthyridin-3-yl)oxy)-N-methylacetamide] | +++ (30% ≤ Ymin < 50%) | < 10 nM |
| CNC(=O)COc1cc2cc(Nc3nc(N4CCN(CCC5CCN(c6cccc7c(C8CCC(=O)NC8=O)nn(C)c67)CC5)CC4)ncc3Cl)cnc2n(C)c1=O (centres unmarked) [Compound 115, 2-((6-((5-chloro-2-(4-(2-(1-(3-(2,6-dioxopiperidin-3-yl)-1-methyl-1H-indazol-7-yl)piperidin-4-yl)ethyl)piperazin-1-yl)pyrimidin-4-yl)amino)-1-methyl-2-oxo-1,2-dihydro-1,8-naphthyridin-3-yl)oxy)-N-methylacetamide] | +++ (30% ≤ Ymin < 50%) | < 10 nM |
| CNC(=O)COc1cc2cc(Nc3nc(N4CCN(CC5CCN(c6cccc7c(C8CCC(=O)NC8=O)nn(C)c67)CC5)[C@H](C(C)(C)O)C4)ncc3Cl)cnc2n(C(C)C)c1=O (stereo partly drawn) [Compound 208a, 2-[[6-[[5-chloro-2-[(3S)-4-[[1-[3-(2,6-dioxo-3-piperidyl)-1-methyl-indazol-7-yl]-4-piperidyl]methyl]-3-(1-hydroxy-1-methyl-ethyl)piperazin-1-yl]pyrimidin-4-yl]amino]-1-isopropyl-2-oxo-1,8-naphthyridin-3-yl]oxy]-N-methyl-acetamide] | +++ (30% ≤ Ymin < 50%) | 10 to 100 nM |
| CNC(=O)COc1cc2cc(Nc3nc(N4CCN(C[C@@H]5CCN(c6ccc7c(C8CCC(=O)NC8=O)nn(C)c7c6)C5)CC4)ncc3Cl)cnc2n(C(C)C)c1=O (stereo partly drawn) [Compound 228a, 2-[[6-[[5-chloro-2-[4-[[(3S)-1-[3-(2,6-dioxo-3-piperidyl)-1-methyl-indazol-6-yl]pyrrolidin-3-yl]methyl]piperazin-1-yl]pyrimidin-4-yl]amino]-1-isopropyl-2-oxo-1,8-naphthyridin-3-yl]oxy]-N-methyl-acetamide] | +++ (30% ≤ Ymin < 50%) | < 10 nM |
| CNC(=O)COc1cc2cc(Nc3nc(N4CCC5(CC4)CC(N4CCN(c6ccc7c(C8CCC(=O)NC8=O)nn(C)c7c6)CC4)C5)ncc3Cl)cnc2n(C(C)C)c1=O (centres unmarked) [Compound 229, 2-[[6-[[5-chloro-2-[2-[4-[3-(2,6-dioxo-3-piperidyl)-1-methyl-indazol-6-yl]piperazin-1-yl]-7-azaspiro[3.5]nonan-7-yl]pyrimidin-4-yl]amino]-1-isopropyl-2-oxo-1,8-naphthyridin-3-yl]oxy]-N-methyl-acetamide] | ++++ (Ymin < 30%) | < 10 nM |
| CNC(=O)COc1cc2cc(Nc3nc(N4CCN(CC5CCN(c6cccc7c(C8CCC(=O)NC8=O)nn(C)c67)CC5)CC4)ncc3Cl)cnc2n(CC2CC2)c1=O (centres unmarked) [Compound 157, 2-((6-((5-chloro-2-(4-((1-(3-(2,6-dioxopiperidin-3-yl)-1-methyl-1H-indazol-7-yl)piperidin-4-yl)methyl)piperazin-1-yl)pyrimidin-4-yl)amino)-1-(cyclopropylmethyl)-2-oxo-1,2-dihydro-1,8-naphthyridin-3-yl)oxy)-N-methylacetamide] | ++++ (Ymin < 30%) | 10 to 100 nM |
| CNC(=O)COc1cc2cc(Nc3nc(N4CCN([C@H](C)C5CCN(c6cccc7c(C8CCC(=O)NC8=O)nn(C)c67)CC5)CC4)ncc3Cl)cnc2n(C(C)C)c1=O (single isomer, unassigned) [Compound 195b] | +++ (30% ≤ Ymin < 50%) | 10 to 100 nM |
| CNC(=O)COc1cc2cc(Nc3nc(N4CCC(CC5CCN(c6cccc7c(C8CCC(=O)NC8=O)nn(C)c67)CC5)CC4)ncc3Cl)cnc2n(C)c1=O (centres unmarked) [Compound 139, 2-((6-((5-chloro-2-(4-((1-(3-(2,6-dioxopiperidin-3-yl)-1-methyl-1H-indazol-7-yl)piperidin-4-yl)methyl)piperidin-1-yl)pyrimidin-4-yl)amino)-1-methyl-2-oxo-1,2-dihydro-1,8-naphthyridin-3-yl)oxy)-N-methylacetamide] | +++ (30% ≤ Ymin < 50%) | 100 to 1000 nM |
| CNC(=O)COc1cc2cc(Nc3nc(N4CCN(CC5CCN(c6cccc7c(C8CCC(=O)NC8=O)nn(C)c67)CC5)[C@@H](C(F)(F)F)C4)ncc3Cl)cnc2n(C)c1=O (stereo partly drawn) [Compound 141a, 2-((6-((5-chloro-2-((3R)-4-((1-(3-(2,6-dioxopiperidin-3-yl)-1-methyl-1H-indazol-7-yl)piperidin-4-yl)methyl)-3-(trifluoromethyl)piperazin-1-yl)pyrimidin-4-yl)amino)-1-methyl-2-oxo-1,2-dihydro-1,8-naphthyridin-3-yl)oxy)-N-methylacetamide] | +++ (30% ≤ Ymin < 50%) | 10 to 100 nM |
| CNC(=O)COc1cc2cc(Nc3nc(N4CCN(CC5CCN(c6cccc7c(C8CCC(=O)NC8=O)nn(C)c67)CC5)CC4)ncc3F)cnc2n(C)c1=O (centres unmarked) [Compound 135, 2-((6-((2-(4-((1-(3-(2,6-dioxopiperidin-3-yl)-1-methyl-1H-indazol-7-yl)piperidin-4-yl)methyl)piperazin-1-yl)-5-fluoropyrimidin-4-yl)amino)-1-methyl-2-oxo-1,2-dihydro-1,8-naphthyridin-3-yl)oxy)-N-methylacetamide] | ++++ (Ymin < 30%) | < 10 nM |
| CNC(=O)COc1cc2cc(Nc3nc(N4CCC(CN5CCN(c6cccc7c(C8CCC(=O)NC8=O)nn(C)c67)[C@H](C)C5)CC4)ncc3F)cnc2n(C(C)C)c1=O (stereo partly drawn) [Compound 210b, 2-[[6-[[2-[4-[[(3R)-4-[3-(2,6-dioxo-3-piperidyl)-1-methyl-indazol-7-yl]-3-methyl-piperazin-1-yl]methyl]-1-piperidyl]-5-fluoro-pyrimidin-4-yl]amino]-1-isopropyl-2-oxo-1,8-naphthyridin-3-yl]oxy]-N-methyl-acetamide] | ++++ (Ymin < 30%) | 10 to 100 nM |
| CNC(=O)COc1cc2cc(Nc3nc(N4CC[C@H](CN5CCN(c6cccc7c(C8CCC(=O)NC8=O)nn(C)c67)CC5)[C@H](C)C4)ncc3Cl)cnc2n(C(C)C)c1=O (stereo partly drawn) [Compound 177a, 2-((6-((5-chloro-2-((3S,4S)-4-((4-(3-(2,6-dioxopiperidin-3-yl)-1-methyl-1H-indazol-7-yl)piperazin-1-yl)methyl)-3-methylpiperidin-1-yl)pyrimidin-4-yl)amino)-1-isopropyl-2-oxo-1,2-dihydro-1,8-naphthyridin-3-yl)oxy)-N-methylacetamide] | ++++ (Ymin < 30%) | 10 to 100 nM |
| CNC(=O)COc1cc2cc(Nc3nc(N4CCC(CN5CCN(c6ccc7c(C8CCC(=O)NC8=O)nn(C)c7c6)C[C@@H]5CO)CC4)ncc3Cl)cnc2n(C(C)C)c1=O (stereo partly drawn) [Compound 232b, 2-[[6-[[5-chloro-2-[4-[[(2R)-4-[3-(2,6-dioxo-3-piperidyl)-1-methyl-indazol-6-yl]-2-(hydroxymethyl)piperazin-1-yl]methyl]-1-piperidyl]pyrimidin-4-yl]amino]-1-isopropyl-2-oxo-1,8-naphthyridin-3-yl]oxy]-N-methyl-acetamide] | +++ (30% ≤ Ymin < 50%) | < 10 nM |
